Measured values taken from patent US10787430B2, “Hemoglobin modifier compounds and uses thereof” (FronThera U.S. Pharmaceuticals LLC, priority 2016, dated 2020).
Converted amounts (≈) assume the structure as drawn. Like-named read-outs stand apart in the source and are kept apart here.

Legend:
CYP2C19 = molecular target: T1, CYP2C19 (Homo sapiens, UniProt P33261); test: CYP inhibition evaluation in human liver microsomes; type: in vitro ADME
T1 construct: from tissue; host or cells: human liver microsomes
T1 sequence (P33261 whole entry): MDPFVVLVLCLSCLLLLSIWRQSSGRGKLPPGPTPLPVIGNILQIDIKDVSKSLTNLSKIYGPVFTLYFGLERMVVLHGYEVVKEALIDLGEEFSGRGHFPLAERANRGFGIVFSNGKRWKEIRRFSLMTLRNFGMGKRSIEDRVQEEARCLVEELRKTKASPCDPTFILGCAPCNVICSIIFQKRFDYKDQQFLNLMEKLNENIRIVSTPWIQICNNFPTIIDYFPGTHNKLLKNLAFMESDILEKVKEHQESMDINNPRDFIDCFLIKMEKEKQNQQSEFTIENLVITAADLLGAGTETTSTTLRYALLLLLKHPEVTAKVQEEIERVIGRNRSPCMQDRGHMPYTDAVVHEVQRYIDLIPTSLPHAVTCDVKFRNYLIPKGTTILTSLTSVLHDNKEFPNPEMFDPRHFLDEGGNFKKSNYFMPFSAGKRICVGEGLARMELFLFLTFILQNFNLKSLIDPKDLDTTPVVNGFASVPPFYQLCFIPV
Excerpt: (§1) Example A5: CYP Inhibition Evaluation in Human Liver Microsomes

CYP2C8 = molecular target: T2, CYP2C8 (Homo sapiens, UniProt P10632); test: as above; type: in vitro ADME
T2 construct: from tissue; host or cells: human liver microsomes
T2 sequence (P10632 1-490): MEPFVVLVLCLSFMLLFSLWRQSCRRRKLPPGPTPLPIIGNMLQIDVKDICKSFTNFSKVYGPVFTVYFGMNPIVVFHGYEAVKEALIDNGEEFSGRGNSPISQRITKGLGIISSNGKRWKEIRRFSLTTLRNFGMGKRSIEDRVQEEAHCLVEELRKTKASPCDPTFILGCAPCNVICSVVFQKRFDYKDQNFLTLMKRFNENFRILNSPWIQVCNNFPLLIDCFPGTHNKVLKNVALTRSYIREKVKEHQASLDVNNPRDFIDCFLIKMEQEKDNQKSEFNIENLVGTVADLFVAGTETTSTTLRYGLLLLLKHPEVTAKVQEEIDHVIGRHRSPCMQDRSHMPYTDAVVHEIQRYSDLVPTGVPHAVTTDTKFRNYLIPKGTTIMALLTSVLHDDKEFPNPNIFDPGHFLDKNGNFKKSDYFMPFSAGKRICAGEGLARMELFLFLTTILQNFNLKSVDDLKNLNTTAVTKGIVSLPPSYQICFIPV
Excerpt: as §1

CYP2D6 = molecular target: T3, CYP2D6 (Homo sapiens, UniProt P10635); test: as above; type: in vitro ADME
T3 construct: from tissue; host or cells: human liver microsomes
T3 sequence (P10635 whole entry): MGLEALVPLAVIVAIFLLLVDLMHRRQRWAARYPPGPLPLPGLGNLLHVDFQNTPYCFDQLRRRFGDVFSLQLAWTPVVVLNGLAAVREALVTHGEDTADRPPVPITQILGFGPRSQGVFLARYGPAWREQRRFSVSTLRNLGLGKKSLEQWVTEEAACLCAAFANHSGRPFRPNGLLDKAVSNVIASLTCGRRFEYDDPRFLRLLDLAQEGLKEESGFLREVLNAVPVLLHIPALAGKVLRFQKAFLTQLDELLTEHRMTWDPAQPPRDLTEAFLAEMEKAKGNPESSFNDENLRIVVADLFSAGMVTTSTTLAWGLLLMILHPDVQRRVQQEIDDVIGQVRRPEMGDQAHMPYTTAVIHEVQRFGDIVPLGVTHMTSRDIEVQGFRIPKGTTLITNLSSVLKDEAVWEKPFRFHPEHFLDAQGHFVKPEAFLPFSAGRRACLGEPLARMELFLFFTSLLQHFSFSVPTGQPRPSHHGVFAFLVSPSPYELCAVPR
Excerpt: as §1

CYP2C9 = molecular target: T4, CYP2C9 (Homo sapiens, UniProt P11712); test: as above; type: in vitro ADME
T4 construct: from tissue; host or cells: human liver microsomes
T4 sequence (P11712 whole entry): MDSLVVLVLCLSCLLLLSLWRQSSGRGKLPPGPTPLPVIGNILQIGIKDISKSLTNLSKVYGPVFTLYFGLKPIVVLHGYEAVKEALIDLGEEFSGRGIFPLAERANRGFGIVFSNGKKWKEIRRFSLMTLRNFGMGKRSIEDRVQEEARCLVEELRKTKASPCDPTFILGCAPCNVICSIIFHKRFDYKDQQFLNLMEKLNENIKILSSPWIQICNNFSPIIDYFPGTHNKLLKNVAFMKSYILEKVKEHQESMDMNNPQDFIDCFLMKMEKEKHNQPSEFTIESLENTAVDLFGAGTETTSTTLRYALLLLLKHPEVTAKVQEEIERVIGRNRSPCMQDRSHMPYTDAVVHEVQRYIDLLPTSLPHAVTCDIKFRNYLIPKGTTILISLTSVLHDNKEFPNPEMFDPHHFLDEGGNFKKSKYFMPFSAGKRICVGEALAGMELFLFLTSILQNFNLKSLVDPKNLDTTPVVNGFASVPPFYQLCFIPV
Excerpt: as §1

CYP3A4-M = molecular target: T5, CYP3A4-M (Homo sapiens, UniProt P08684); test: as above; type: in vitro ADME
T5 construct: from tissue; host or cells: human liver microsomes
T5 sequence (P08684 whole entry): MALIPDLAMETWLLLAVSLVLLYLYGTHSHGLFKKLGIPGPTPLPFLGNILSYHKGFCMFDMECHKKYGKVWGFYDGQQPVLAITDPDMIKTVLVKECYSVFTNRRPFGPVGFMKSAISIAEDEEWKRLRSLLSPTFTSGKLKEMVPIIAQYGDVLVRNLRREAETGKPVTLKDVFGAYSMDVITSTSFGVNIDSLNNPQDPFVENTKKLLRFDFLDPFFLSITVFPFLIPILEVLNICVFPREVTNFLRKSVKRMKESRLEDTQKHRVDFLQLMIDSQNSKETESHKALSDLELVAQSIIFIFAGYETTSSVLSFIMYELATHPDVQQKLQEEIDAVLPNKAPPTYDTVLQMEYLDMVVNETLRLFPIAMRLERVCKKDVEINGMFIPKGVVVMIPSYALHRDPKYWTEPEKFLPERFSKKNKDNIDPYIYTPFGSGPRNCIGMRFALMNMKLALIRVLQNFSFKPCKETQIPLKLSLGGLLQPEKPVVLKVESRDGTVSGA
Excerpt: as §1

CYP1A2 = molecular target: T6, CYP1A2 (Homo sapiens, UniProt P05177); test: as above; type: in vitro ADME
T6 construct: from tissue; host or cells: human liver microsomes
T6 sequence (P05177 1-516): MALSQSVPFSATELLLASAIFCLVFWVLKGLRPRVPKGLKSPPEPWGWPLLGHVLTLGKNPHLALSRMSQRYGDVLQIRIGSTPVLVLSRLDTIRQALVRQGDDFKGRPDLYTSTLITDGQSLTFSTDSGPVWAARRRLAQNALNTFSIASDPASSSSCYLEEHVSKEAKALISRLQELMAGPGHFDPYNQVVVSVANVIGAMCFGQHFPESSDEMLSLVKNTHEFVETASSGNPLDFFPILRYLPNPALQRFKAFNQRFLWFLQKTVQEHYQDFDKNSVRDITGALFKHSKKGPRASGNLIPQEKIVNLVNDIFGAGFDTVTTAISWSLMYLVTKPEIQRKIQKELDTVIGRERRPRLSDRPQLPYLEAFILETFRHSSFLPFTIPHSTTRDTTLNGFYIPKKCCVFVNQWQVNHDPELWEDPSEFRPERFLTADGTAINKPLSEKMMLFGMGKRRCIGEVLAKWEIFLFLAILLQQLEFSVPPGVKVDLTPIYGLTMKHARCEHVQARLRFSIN
Excerpt: as §1

[1] = Microsome stability evaluation in human liver microsomes; type: in vitro ADME; settings: read-out: Human microsome, t½
Excerpt: (§2) Example A6: Microsome Stability Evaluation in Human and Rat Liver Microsomes

[2] = molecular target: T7, hemoglobin (20% hct blood) (Homo sapiens, UniProt P68871+P69905); test: Dose-dependent whole blood OEC studies; type: cell-based; settings: 37° C., 1 hr
T7 construct: Normal whole blood was collected from adult healthy donors; from tissue; host or cells: normal human whole blood (red blood cells), adult healthy donors
T7 sequence (P69905 2-142 limits assumed): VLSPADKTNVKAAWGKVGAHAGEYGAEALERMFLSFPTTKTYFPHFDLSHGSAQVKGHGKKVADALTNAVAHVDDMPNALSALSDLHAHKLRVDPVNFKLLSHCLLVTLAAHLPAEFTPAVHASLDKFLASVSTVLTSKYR
T7 sequence (P68871 2-147 limits assumed): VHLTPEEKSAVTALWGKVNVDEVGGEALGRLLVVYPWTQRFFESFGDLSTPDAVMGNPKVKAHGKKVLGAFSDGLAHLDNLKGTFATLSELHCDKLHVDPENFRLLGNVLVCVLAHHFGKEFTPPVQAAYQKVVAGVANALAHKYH
Summary of the method: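 Human whole blood at 20% hct shaken with 0.2, 0.5 or 1 mM compound at 37° C. for 1 hr; DMSO (1%) vehicle control. Oxygen equilibrium curves gave pO2 and Hb oxygen saturation (sO2), reported as delta p50%.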

[3] = Solubility in JP1, JP2 and FaSSIF buffers; type: physicochemical; settings: 25 °C, thermodynamic from solid, room temperature
Procedure: Conditions: 1. JP1 buffer (84 mM HCl, 34.22 mM NaCl, pH 1.2); 2. JP2 buffer (50 mM phosphate buffer at pH 6.8); 3. FaSSIF buffer, pH 6.5 (Preparation: In about 0.9 L of purified water dissolve 0.420 g of NaOH (pellets), 4.470 g of NaH2PO4 (dihydrate), 6.186 g of NaCl; Adjust the pH to 6.5 with Sodium hydroxide 1N or Hydrochloric acid 1N, to make up to volume (1 L) with purified water at room temperature; Add 0.224 g of SIF Powder Original to about 0.5 L of pH 6.5 blank buffer and stir until powder is completely dissolved; Let stand for 2 hour. FaSSIF buffer is now ready to use.
Procedures: 1. accurately weighed about 2 mg test compounds and controls in whatman vials, then transferred 450 μL buffer in to the vials; 2. Filter pistons of miniuniprep vials were placed and compressed to the position of the liquid level to allow for contact. Vortexed for 2 minutes; 3. […] Miniunipreps were compressed to prepare the filtrates for injection into HPLC system; 5. Diluted the filtrates with buffer by a factor of 50 fold to make diluents; 6. Determined the test compound concentration of the diluents and filtrates using HPLC-UV.

[4] = Microsome stability evaluation in rat liver microsomes; type: in vitro ADME; settings: read-out: Rat microsome, t½
Excerpt: as §2

In the case of [2H]C([2H])(Oc1cccc(O)c1C=O)c1cncnc1-c1ccnn1C(C)C [Example 38, 2-hydroxy-6-((4-(1-isopropyl-1H-pyrazol-5-yl)pyrimidin-5-yl)methoxy-d2)benzaldehyde], the IC50 (CYP2C19) is reported as 8.61 µM, the IC50 (CYP2C8) is reported as 25.2 µM and the IC50 (CYP2D6) is reported as greater than 30 µM. The IC50 (CYP2C9) was 10.6 µM, the IC50 (CYP3A4-M) was greater than 30 µM and the IC50 (CYP1A2) was greater than 30 µM. For the same molecule, the half-life [1] was 38 min, the “delta p50 0.2 mM” value ([2]; 0.2 mM compound) was −15.20% and the “delta p50 0.5 mM” value ([2]; 0.5 mM compound) was −46.80%. It also gave a solubility at 24 h ([3]; aqueous buffer, JP2 buffer (50 mM phosphate) pH 6.8, 24 hr, read-out: JP2 Solubility) of 15.1 µg/mL (≈ 44.4 µM), a solubility at 24 h ([3]; simulated gastric fluid, JP1 buffer pH 1.2, 24 hr, read-out: JP1 Solubility) of 20 µg/mL (≈ 58.6 µM) and a solubility at 24 h ([3]; FaSSIF buffer pH 6.5, 24 hr, read-out: FaSSIF Solubility) of 26.6 µg/mL (≈ 78.1 µM). For the same molecule, the half-life [4] was 18 min.
